From patent publication US20240408169A1 (priority 2023, published 2024)
*1 amine or outer side, *2 acyl side, *3 side chain or, on linkers, in order; H or OH if unused. Where a SMILES comes first, the peptide text is derived from it. Bridges are numbered along the chain shown (N, C = ends). [ ]: non-standard residue; d: D form. The star is where a group is joined. X52 = CN1C[C@@H]2C[C@H]1CN2c1ccc(-c2ccc(Cl)cc2C[C@@H](C(=O)[*:2])N(C)[*:1])cc1; NMePhe(2-(4-MorPh),5-Cl) = CN[C@@H](Cc1cc(Cl)ccc1-c1ccc(N2CCOCC2)cc1)C(=O)O; X3 = COCCOCCN1CCN(c2ccc(-c3ccc(Cl)cc3C[C@@H](C(=O)[*:2])N(C)[*:1])cc2)CC1; X50 = CN([C@@H](Cc1cc(Cl)ccc1-c1ccc(N2CCN(C3COC3)CC2)cc1)C(=O)[*:2])[*:1]; X43 = CC(C)N1CCN(c2ccc(-c3ccc(Cl)cc3C[C@@H](C(=O)[*:2])N(C)[*:1])cc2)CC1; X98 = CN1CC2(C1)OCc1cc(-c3ccc(Cl)cc3C[C@@H](C(=O)[*:2])N(C)[*:1])ccc12; X107 = CN([C@@H](Cc1cc(Cl)ccc1-c1ccc(-c2cnn(C)c2)cc1)C(=O)[*:2])[*:1]; X114 = CN([C@@H](Cc1cc(Cl)ccc1-c1ccc(OCCN2CCOCC2)cc1)C(=O)[*:2])[*:1]; X80 = CN1CC=C(c2ccc(-c3ccc(Cl)cc3C[C@@H](C(=O)[*:2])N(C)[*:1])cc2)CC1; X11 = CN1CCN(c2ccc(-c3ccc(Cl)cc3C[C@@H](C(=O)[*:2])N(C)[*:1])cc2)CC1; X71 = CN([C@@H](Cc1cc(Cl)ccc1-c1ccc(N2CCOCC2)c(F)c1)C(=O)[*:2])[*:1]; X12 = CN1CCN(c2ccc(-c3ccc(F)cc3C[C@@H](C(=O)[*:2])N(C)[*:1])cc2)CC1; X115 = CN([C@@H](Cc1cc(Cl)ccc1-c1ccc(N2CCNCC2)cc1)C(=O)[*:2])[*:1]; X93 = CN([C@@H](Cc1cc(Cl)ccc1-c1ccc(OC2CCOCC2)cc1)C(=O)[*:2])[*:1]; X87 = CN([C@@H](Cc1cc(F)ccc1-c1ccc(N2CCOCC2)cc1)C(=O)[*:2])[*:1]; NMehhhLys(Me) = CN([C@@H](CCCCCCCN(C)[*:3])C(=O)[*:2])[*:1]; cBuCO(3,3-F2-1-CF3) = O=C(C1(C(F)(F)F)CC(F)(F)C1)*; Pro(trans-4-F) = O=C(O)[C@@H]1C[C@@H](F)CN1; Pivaloyl(3,3,3-F3) = CC(C)(C(=O)*)C(F)(F)F; Gly(cPr) = N[C@H](C(=O)O)C1CC1

How the values were obtained:
[1] = target: T1, CyclinB1/CDK1 (Homo sapiens, UniProt P14635); assay: Fluorescence Polarization (FP) competitive binding assay, Cyclin B1/Cdk1; conditions: 10 nM Cyclin B1/Cdk1, 2 nM FAM probe; average of 2-3 independent experiments; read-out: Cyclin B FP IC50;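 further: fluorescence polarization read after equilibration at room temperature, with IC50 taken from serially diluted dose-response curves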
T1 construct: purchased Eurofins, discovery 14-450

[2] = system: OVCAR3 cells; assay: MTT proliferation assay, OVCAR3; format: cell-based; conditions: 5 days compound exposure, 1:3 serial dilution starting at 10 μM;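 further: compound given as an 8- or 10-point series, one day after plating, with exposure covering roughly 3-4 cell doublings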
[3] = system: WI-38 cells; assay: MTT proliferation assay, WI-38; format: cell-based; conditions: 3 days compound exposure, 1:3 serial dilution starting at 10 μM;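 further: Eight- or ten-point dilution series, with exposure length chosen to span about three to four cell doublings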
[4] = target: T2, CyclinA2/CDK2 (Homo sapiens, UniProt P20248); assay: Fluorescence Polarization (FP) competitive binding assay, Cyclin A2/Cdk2; conditions: 8 nM Cyclin A2/Cdk2, 2 nM FAM probe; average of 2-3 independent experiments; read-out: Cyclin A FP IC50;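 further: plates equilibrated two hours at room temperature before polarization reading, IC50 fitted from eight-concentration compound titration curves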
T2 construct: purchased CRELUX Protein Services

[5] = system: NCI-H1048 cells; assay: MTT proliferation assay, NCI-H1048; format: cell-based; conditions: 5 days compound exposure, 1:3 serial dilution starting at 10 μM;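 further: Dose-response in 96-well plates over 8 or 10 concentration points, with exposure spanning 3-4 cell doublings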
[6] = target: T3, CyclinE1/CDK2 (Homo sapiens, UniProt P24864); assay: Fluorescence Polarization (FP) competitive binding assay, Cyclin E1/Cdk2; conditions: 10 nM Cyclin E1/Cdk2, 2 nM FAM probe; average of 2-3 independent experiments; read-out: Cyclin E FP IC50;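 further: readings taken after two-hour equilibration at room temperature in HEPES buffer with NaCl, DTT, NP-40 and BSA, IC50 fitted from eight-concentration serial dilution series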
T3 construct: purchased Eurofins, discovery 14-475

Compound | IC50 [1] | GI50 [2] | GI50 [3] | IC50 [4] | GI50 [5] | IC50 [6]
CC(C)C[C@@H]1NC(=O)[C@@H](N(C)C(=O)[C@@H](NC(=O)[C@@H]2C[C@@H](F)CN2C(=O)C(C)(C)C(F)(F)F)C2CC2)CCCCCCCN(C)C(=O)[C@H](Cc2cc(Cl)ccc2-c2ccc(N3CCOCC3)cc2)N(C)C1=O [Example 335] ({Pivaloyl(3,3,3-F3)}-[Pro(trans-4-F)][Gly(cPr)][NMehhhLys(Me)]L[NMePhe(2-(4-MorPh),5-Cl)]; lactam 3-C) | 20 nM | 10 nM | 4750 nM | 20 nM | 10 nM | 160 nM
CC(C)C[C@@H]1NC(=O)[C@@H](N(C)C(=O)[C@@H](NC(=O)[C@@H]2C[C@@H](F)CN2C(=O)C2(C(F)(F)F)CC(F)(F)C2)C2CC2)CCCCCCCN(C)C(=O)[C@H](Cc2cc(Cl)ccc2-c2ccc(N3CCN(C)CC3)cc2)N(C)C1=O [Example 336] ({cBuCO(3,3-F2-1-CF3)}-[Pro(trans-4-F)][Gly(cPr)][NMehhhLys(Me)]L[X11]; lactam 3-C) | 20 nM | 10 nM | 2480 nM | 20 nM | 10 nM | 420 nM
CC(C)C[C@@H]1NC(=O)[C@@H](N(C)C(=O)[C@@H](NC(=O)[C@@H]2C[C@@H](F)CN2C(=O)C2(C(F)(F)F)CC(F)(F)C2)C2CC2)CCCCCCCN(C)C(=O)[C@H](Cc2cc(F)ccc2-c2ccc(N3CCOCC3)cc2)N(C)C1=O [Example 337] ({cBuCO(3,3-F2-1-CF3)}-[Pro(trans-4-F)][Gly(cPr)][NMehhhLys(Me)]L[X87]; lactam 3-C) | 20 nM | 10 nM | 18700 nM | 20 nM | 10 nM | 190 nM
CC(C)C[C@@H]1NC(=O)[C@@H](N(C)C(=O)[C@@H](NC(=O)[C@@H]2C[C@@H](F)CN2C(=O)C2(C(F)(F)F)CC(F)(F)C2)C2CC2)CCCCCCCN(C)C(=O)[C@H](Cc2cc(Cl)ccc2-c2ccc(-c3cnn(C)c3)cc2)N(C)C1=O [Example 338] ({cBuCO(3,3-F2-1-CF3)}-[Pro(trans-4-F)][Gly(cPr)][NMehhhLys(Me)]L[X107]; lactam 3-C) | 20 nM | 20 nM | 18900 nM | 30 nM | 20 nM | 1700 nM
CC(C)C[C@@H]1NC(=O)[C@@H](N(C)C(=O)[C@@H](NC(=O)[C@@H]2C[C@@H](F)CN2C(=O)C2(C(F)(F)F)CC(F)(F)C2)C2CC2)CCCCCCCN(C)C(=O)[C@H](Cc2cc(Cl)ccc2-c2ccc(OCCN3CCOCC3)cc2)N(C)C1=O [Example 339] ({cBuCO(3,3-F2-1-CF3)}-[Pro(trans-4-F)][Gly(cPr)][NMehhhLys(Me)]L[X114]; lactam 3-C) | 20 nM | 10 nM | 5620 nM | 20 nM | 10 nM | 400 nM
CC(C)C[C@@H]1NC(=O)[C@@H](N(C)C(=O)[C@@H](NC(=O)[C@@H]2C[C@@H](F)CN2C(=O)C2(C(F)(F)F)CC(F)(F)C2)C2CC2)CCCCCCCN(C)C(=O)[C@H](Cc2cc(Cl)ccc2-c2ccc(OC3CCOCC3)cc2)N(C)C1=O [Example 340] ({cBuCO(3,3-F2-1-CF3)}-[Pro(trans-4-F)][Gly(cPr)][NMehhhLys(Me)]L[X93]; lactam 3-C) | 20 nM | 20 nM | 17300 nM | 20 nM | 20 nM | 1650 nM
CC(C)C[C@@H]1NC(=O)[C@@H](N(C)C(=O)[C@@H](NC(=O)[C@@H]2C[C@@H](F)CN2C(=O)C2(C(F)(F)F)CC(F)(F)C2)C2CC2)CCCCCCCN(C)C(=O)[C@H](Cc2cc(Cl)ccc2-c2ccc(N3CCNCC3)cc2)N(C)C1=O [Example 341] ({cBuCO(3,3-F2-1-CF3)}-[Pro(trans-4-F)][Gly(cPr)][NMehhhLys(Me)]L[X115]; lactam 3-C) | 20 nM | 10 nM | 2440 nM | 20 nM | 10 nM | 510 nM
CC(C)C[C@@H]1NC(=O)[C@@H](N(C)C(=O)[C@@H](NC(=O)[C@@H]2C[C@@H](F)CN2C(=O)C2(C(F)(F)F)CC(F)(F)C2)C2CC2)CCCCCCCN(C)C(=O)[C@H](Cc2cc(Cl)ccc2-c2ccc(N3CCN(C4COC4)CC3)cc2)N(C)C1=O [Example 346] ({cBuCO(3,3-F2-1-CF3)}-[Pro(trans-4-F)][Gly(cPr)][NMehhhLys(Me)]L[X50]; lactam 3-C) | 20 nM | 10 nM | 3680 nM | 20 nM | 10 nM | 360 nM
CC(C)C[C@@H]1NC(=O)[C@@H](N(C)C(=O)[C@@H](NC(=O)[C@@H]2C[C@@H](F)CN2C(=O)C2(C(F)(F)F)CC(F)(F)C2)C2CC2)CCCCCCCN(C)C(=O)[C@H](Cc2cc(Cl)ccc2-c2ccc(N3CCN(C(C)C)CC3)cc2)N(C)C1=O [Example 347] ({cBuCO(3,3-F2-1-CF3)}-[Pro(trans-4-F)][Gly(cPr)][NMehhhLys(Me)]L[X43]; lactam 3-C) | 20 nM | 10 nM | 1810 nM | 20 nM | 10 nM | 650 nM
CC(C)C[C@@H]1NC(=O)[C@@H](N(C)C(=O)[C@@H](NC(=O)[C@@H]2C[C@@H](F)CN2C(=O)C2(C(F)(F)F)CC(F)(F)C2)C2CC2)CCCCCCCN(C)C(=O)[C@H](Cc2cc(Cl)ccc2-c2ccc(N3CCOCC3)c(F)c2)N(C)C1=O [Example 348] ({cBuCO(3,3-F2-1-CF3)}-[Pro(trans-4-F)][Gly(cPr)][NMehhhLys(Me)]L[X71]; lactam 3-C) | 20 nM | 10 nM | 18000 nM | 20 nM | 10 nM | 880 nM
CC(C)C[C@@H]1NC(=O)[C@@H](N(C)C(=O)[C@@H](NC(=O)[C@@H]2C[C@@H](F)CN2C(=O)C2(C(F)(F)F)CC(F)(F)C2)C2CC2)CCCCCCCN(C)C(=O)[C@H](Cc2cc(Cl)ccc2-c2ccc(C3=CCN(C)CC3)cc2)N(C)C1=O [Example 351] ({cBuCO(3,3-F2-1-CF3)}-[Pro(trans-4-F)][Gly(cPr)][NMehhhLys(Me)]L[X80]; lactam 3-C) | 20 nM | 10 nM | 1780 nM | 20 nM | 10 nM | 970 nM
CC(C)C[C@@H]1NC(=O)[C@@H](N(C)C(=O)[C@@H](NC(=O)[C@@H]2C[C@@H](F)CN2C(=O)C2(C(F)(F)F)CC(F)(F)C2)C2CC2)CCCCCCCN(C)C(=O)[C@H](Cc2cc(F)ccc2-c2ccc(N3CCN(C)CC3)cc2)N(C)C1=O [Example 353] ({cBuCO(3,3-F2-1-CF3)}-[Pro(trans-4-F)][Gly(cPr)][NMehhhLys(Me)]L[X12]; lactam 3-C) | 20 nM | 10 nM | 3490 nM | 20 nM | 10 nM | 220 nM
CC(C)C[C@@H]1NC(=O)[C@@H](N(C)C(=O)[C@@H](NC(=O)[C@@H]2C[C@@H](F)CN2C(=O)C2(C(F)(F)F)CC(F)(F)C2)C2CC2)CCCCCCCN(C)C(=O)[C@H](Cc2cc(Cl)ccc2-c2ccc3c(c2)COC32CN(C)C2)N(C)C1=O [Example 355] ({cBuCO(3,3-F2-1-CF3)}-[Pro(trans-4-F)][Gly(cPr)][NMehhhLys(Me)]L[X98]; lactam 3-C) | 20 nM | 10 nM | 2770 nM | 20 nM | 10 nM | 1760 nM
COCCOCCN1CCN(c2ccc(-c3ccc(Cl)cc3C[C@H]3C(=O)N(C)CCCCCCC[C@H](N(C)C(=O)[C@@H](NC(=O)[C@@H]4C[C@@H](F)CN4C(=O)C4(C(F)(F)F)CC(F)(F)C4)C4CC4)C(=O)N[C@@H](CC(C)C)C(=O)N3C)cc2)CC1 [Example 356] ({cBuCO(3,3-F2-1-CF3)}-[Pro(trans-4-F)][Gly(cPr)][NMehhhLys(Me)]L[X3]; lactam 3-C) | 20 nM | 10 nM | 3430 nM | 20 nM | 10 nM | 340 nM
CC(C)C[C@@H]1NC(=O)[C@@H](N(C)C(=O)[C@@H](NC(=O)[C@@H]2C[C@@H](F)CN2C(=O)C2(C(F)(F)F)CC(F)(F)C2)C2CC2)CCCCCCCN(C)C(=O)[C@H](Cc2cc(Cl)ccc2-c2ccc(N3C[C@@H]4C[C@H]3CN4C)cc2)N(C)C1=O [Example 357] ({cBuCO(3,3-F2-1-CF3)}-[Pro(trans-4-F)][Gly(cPr)][NMehhhLys(Me)]L[X52]; lactam 3-C) | 20 nM | 50 nM | 3140 nM | 30 nM | 20 nM | 1970 nM
